Laboratory results: patent publication US20230119539A1, “TRACELESS LINKERS AND PROTEIN-CONJUGATES THEREOF” (Regeneron Pharmaceuticals, Inc., priority 2019, published 2023)

Columns and labels:
[1] = Solubility of linker-payloads and quenched linker-payloads; assay type: physicochemical; details: quenched linker-payloads, Table 6a
Text: The quenched linker-payloads were water soluble and used for the pH stability test.

[2] = pH stability of quenched linker-payloads in buffers (LCMS); assay type: physicochemical; details: for percentage of the remaining compound: RT
Procedure: To a solution of compound (payloads or quenched-linker-payloads) in DMSO (0.2-1.0 mg/mL) was added corresponding PBS buffer (V(buffer)/V(DMSO)=5) to give test samples (pH 3, 4, 5, 6, 7.4, and 8.5, or other special pH). The test samples were incubated at RT for at least 3 days and monitored by LCMS (i.e., at 1 hr, 2 hr, 4 hr, 8 hr, and 1 day, 2 day, 3 day, 4 day, 5 day, 6 day, 7 day, 8 day, 9 day, and 21 day time points). Initial concentrations of the samples were 0.2 mg/mL (DMSO/buffer, v/v=1/5). […] The payloads and quenched linker-payloads were mostly stable at pH >5.0, 6.0, 7.4 and 8.5 after 3 days. In more acidic conditions, such as pH 1.0, the payloads or linker-payloads were easily cleaved to release D*-OH.

[3] = Solubility of quenched linker-payloads; details: Table 3c, linker-payloads quenched with taurine-PEG4-azide or CD-N3

CCCC1O[C@@H]2C[C@H]3[C@@H]4CCC5=CC(=O)C=C[C@]5(C)[C@H]4[C@@H](O)C[C@]3(C)[C@]2(C(=O)COCN(C)C(=O)CNC(=O)OCc2ccc(NC(=O)[C@H](CCCNC(N)=O)NC(=O)[C@@H](NC(=O)CCOCCOCCOCCOCCNC(=O)CCC(=O)N3Cc4ccccc4-c4c(nnn4CCOCCOCCOCCOCCC(=O)NCCS(=O)(=O)O)-c4ccccc43)C(C)C)cc2)O1 (stereo partly shown) [Q1L1-PII-8]
Solubility [1]: >1000 µg/mL
percentage of the remaining compound ([2]; DMSO, 1 Day): 100%
percentage of the remaining compound ([2]; DMSO, 2 Day): 100%
percentage of the remaining compound ([2]; DMSO, 3 Day): 100%
percentage of the remaining compound ([2]; DMSO, 4 Day): 100%
percentage of the remaining compound ([2]; DMSO, 7 Day): 100%
percentage of the remaining compound ([2]; DMSO, 1 hr): 100%
percentage of the remaining compound ([2]; DMSO, 4 hr): 100%
percentage of the remaining compound ([2]; pH 3.0, 1 Day): 93%
percentage of the remaining compound ([2]; pH 3.0, 2 Day): 89%
percentage of the remaining compound ([2]; pH 3.0, 3 Day): 84%
percentage of the remaining compound ([2]; pH 3.0, 4 Day): 79%
percentage of the remaining compound ([2]; pH 3.0, 7 Day): 65%
percentage of the remaining compound ([2]; pH 3.0, 1 hr): 100%
percentage of the remaining compound ([2]; pH 3.0, 4 hr): 100%
percentage of the remaining compound ([2]; pH 4.0, 1 Day): 100%
percentage of the remaining compound ([2]; pH 4.0, 2 Day): 99%
percentage of the remaining compound ([2]; pH 4.0, 3 Day): 99%
percentage of the remaining compound ([2]; pH 4.0, 4 Day): 98%
percentage of the remaining compound ([2]; pH 4.0, 7 Day): 96%
percentage of the remaining compound ([2]; pH 4.0, 1 hr): 100%
percentage of the remaining compound ([2]; pH 4.0, 4 hr): 100%
LP: percentage of linker-payloads remaining ([2]; pH 4.0, day 1): 100%
P: percentage of budesonide released from the linker-payloads ([2]; pH 4.0, day 1): 0%
LP: percentage of linker-payloads remaining ([2]; pH 4.0, day 2): 99%
P: percentage of budesonide released from the linker-payloads ([2]; pH 4.0, day 2): 0%
LP: percentage of linker-payloads remaining ([2]; pH 4.0, day 7): 96%
P: percentage of budesonide released from the linker-payloads ([2]; pH 4.0, day 7): 3%
percentage of the remaining compound ([2]; pH 5.0, 1 Day): 100%
percentage of the remaining compound ([2]; pH 5.0, 2 Day): 100%
percentage of the remaining compound ([2]; pH 5.0, 3 Day): 100%
percentage of the remaining compound ([2]; pH 5.0, 4 Day): 100%
percentage of the remaining compound ([2]; pH 5.0, 7 Day): 100%
percentage of the remaining compound ([2]; pH 5.0, 1 hr): 100%
percentage of the remaining compound ([2]; pH 5.0, 4 hr): 100%
LP: percentage of linker-payloads remaining ([2]; pH 5.0, day 1): 100%
P: percentage of budesonide released from the linker-payloads ([2]; pH 5.0, day 1): 0%
LP: percentage of linker-payloads remaining ([2]; pH 5.0, day 2): 100%
P: percentage of budesonide released from the linker-payloads ([2]; pH 5.0, day 2): 0%
LP: percentage of linker-payloads remaining ([2]; pH 5.0, day 7): 100%
P: percentage of budesonide released from the linker-payloads ([2]; pH 5.0, day 7): 0%
percentage of the remaining compound ([2]; pH 7.4, 1 Day): 100%
percentage of the remaining compound ([2]; pH 7.4, 2 Day): 100%
percentage of the remaining compound ([2]; pH 7.4, 3 Day): 100%
percentage of the remaining compound ([2]; pH 7.4, 4 Day): 100%
percentage of the remaining compound ([2]; pH 7.4, 7 Day): 100%
percentage of the remaining compound ([2]; pH 7.4, 1 hr): 100%
percentage of the remaining compound ([2]; pH 7.4, 4 hr): 100%
LP: percentage of linker-payloads remaining ([2]; pH 7.4, day 1): 100%
P: percentage of budesonide released from the linker-payloads ([2]; pH 7.4, day 1): 0%
LP: percentage of linker-payloads remaining ([2]; pH 7.4, day 2): 100%
P: percentage of budesonide released from the linker-payloads ([2]; pH 7.4, day 2): 0%
LP: percentage of linker-payloads remaining ([2]; pH 7.4, day 7): 100%
P: percentage of budesonide released from the linker-payloads ([2]; pH 7.4, day 7): 0%
Solubility [3]: >1000 µg/mL

CC(C)[C@H](NC(=O)CCOCCOCCOCCOCCNC(=O)CCC(=O)N1Cc2ccccc2-c2c(nnn2CCOCCOCCOCCOCCC(=O)NCCS(=O)(=O)O)-c2ccccc21)C(=O)N[C@@H](CCCNC(N)=O)C(=O)Nc1ccc(COC(=O)NCC(=O)NCOCC(=O)[C@@]2(O)[C@H](C)C[C@H]3[C@@H]4CCC5=CC(=O)C=C[C@]5(C)[C@@]4(F)[C@@H](O)C[C@@]32C)cc1 [Q1L1-PI]
Solubility ([1]; water, read-out: Solubility): > 1000 µg/mL
percentage of the remaining compound ([2]; DMSO, 1 Day): 100%
percentage of the remaining compound ([2]; DMSO, 2 Day): 100%
percentage of the remaining compound ([2]; DMSO, 3 Day): 100%
percentage of the remaining compound ([2]; DMSO, 4 Day): 100%
percentage of the remaining compound ([2]; DMSO, 7 Day): 100%
percentage of the remaining compound ([2]; DMSO, 1 hr): 100%
percentage of the remaining compound ([2]; DMSO, 4 hr): 100%
percentage of the remaining compound ([2]; pH 3.0, 1 Day): 100%
percentage of the remaining compound ([2]; pH 3.0, 2 Day): 100%
percentage of the remaining compound ([2]; pH 3.0, 3 Day): 96%
percentage of the remaining compound ([2]; pH 3.0, 4 Day): 95%
percentage of the remaining compound ([2]; pH 3.0, 7 Day): 91%
percentage of the remaining compound ([2]; pH 3.0, 1 hr): 100%
percentage of the remaining compound ([2]; pH 3.0, 4 hr): 100%
percentage of the remaining compound ([2]; pH 4.0, 1 Day): 100%
percentage of the remaining compound ([2]; pH 4.0, 2 Day): 100%
percentage of the remaining compound ([2]; pH 4.0, 3 Day): 100%
percentage of the remaining compound ([2]; pH 4.0, 4 Day): 100%
percentage of the remaining compound ([2]; pH 4.0, 7 Day): 100%
percentage of the remaining compound ([2]; pH 4.0, 1 hr): 100%
percentage of the remaining compound ([2]; pH 4.0, 4 hr): 100%
percentage of the remaining compound ([2]; pH 5.0, 1 Day): 100%
percentage of the remaining compound ([2]; pH 5.0, 2 Day): 100%
percentage of the remaining compound ([2]; pH 5.0, 3 Day): 100%
percentage of the remaining compound ([2]; pH 5.0, 4 Day): 100%
percentage of the remaining compound ([2]; pH 5.0, 7 Day): 100%
percentage of the remaining compound ([2]; pH 5.0, 1 hr): 100%
percentage of the remaining compound ([2]; pH 5.0, 4 hr): 100%
percentage of the remaining compound ([2]; pH 7.4, 1 Day): 100%
percentage of the remaining compound ([2]; pH 7.4, 2 Day): 100%
percentage of the remaining compound ([2]; pH 7.4, 3 Day): 100%
percentage of the remaining compound ([2]; pH 7.4, 4 Day): 100%
percentage of the remaining compound ([2]; pH 7.4, 7 Day): 100%
percentage of the remaining compound ([2]; pH 7.4, 1 hr): 100%
percentage of the remaining compound ([2]; pH 7.4, 4 hr): 100%
